US7087756B2, “Isoxazolopyridinones” (Novartis AG, priority 2001, dated 2006)

Molecular target: Nurr1 receptor (Homo sapiens, UniProt P43354)
Assay: Transactivation of a Nurr1 responsive reporter gene in a midbrain dopaminergic cell line
Type: cell-based
Details: read-out: EC50 of increase of reporter gene activity
Description: The activity of the agents of the invention at the Nurr1 receptor can be determined in vitro in cellular assays:
Induction of the biological activity of the Nurr1 receptor by the agents of the invention can be measured by the transactivation of a Nurr1 responsive reporter gene in a midbrain dopaminergic cell line. The assay is based on the transcription promoting effect of Nurr1. The reporter gene can be activated both by Nurr1 monomers and Nurr1/RXR heterodimers. RXR is a frequent heterodimerisation partner of nuclear receptors and it has been shown that Nurr1 can form heterodimers with RXR (Zetterström RH et al. Mol. Endocrinol. 1996; 10:1656–1666).

Nurr1 receptor, sequence (P43354 whole entry): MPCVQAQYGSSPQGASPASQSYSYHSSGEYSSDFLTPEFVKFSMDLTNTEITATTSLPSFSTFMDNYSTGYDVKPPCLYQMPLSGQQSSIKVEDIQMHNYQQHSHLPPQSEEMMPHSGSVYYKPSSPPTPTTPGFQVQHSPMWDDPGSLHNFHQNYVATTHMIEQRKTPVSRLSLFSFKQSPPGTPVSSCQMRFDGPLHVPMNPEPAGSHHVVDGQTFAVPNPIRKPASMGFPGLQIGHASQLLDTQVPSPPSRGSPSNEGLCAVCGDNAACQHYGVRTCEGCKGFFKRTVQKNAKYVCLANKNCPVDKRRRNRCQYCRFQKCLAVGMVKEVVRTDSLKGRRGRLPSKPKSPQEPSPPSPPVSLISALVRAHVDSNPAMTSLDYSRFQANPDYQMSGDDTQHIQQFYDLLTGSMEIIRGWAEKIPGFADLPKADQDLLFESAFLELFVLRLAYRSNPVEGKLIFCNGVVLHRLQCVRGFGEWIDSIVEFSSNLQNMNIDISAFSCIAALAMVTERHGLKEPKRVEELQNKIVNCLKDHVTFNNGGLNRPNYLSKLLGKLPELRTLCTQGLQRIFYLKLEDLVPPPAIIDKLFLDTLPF

| EC50 | Structure (SMILES) |
| --- | --- |
| 70 nM | CN(C)Cc1ccc(-c2cc3onc(-c4ccccc4)c3c(=O)[nH]2)cc1 [Example 11, 6-(4-Dimethylaminomethyl-phenyl)-3-phenyl-5H-isoxazolo[4,5-c]pyridin-4-one] |
| 40 nM | COCCOCc1ccc(-c2cc3onc(-c4ccccc4)c3c(=O)n2C)cc1 [Example 7, 6-[4-(2-Methoxy-ethoxymethyl)-phenyl]-5-methyl-3-phenyl-5H-isoxazolo[4,5-c]pyridin-4-one] |
